# ChEMBL document CHEMBL4507320, “Data for DCP probe NVS-MALT1” (2021)
# What was measured:
# [1] = biological target: LIM domain kinase 1 (Homo sapiens) (UniProt P53667); settings: Compound concentration 1000.0 nM
# [2] = biological target: Calcium/calmodulin-dependent protein kinase type II subunit gamma (Homo sapiens) (UniProt Q13555); settings: Compound concentration 1000.0 nM
# [3] = test system: Receptor-type tyrosine-protein kinase FLT3 (Homo sapiens), P36888 [UNDEFINED MUTATION]; settings: Compound concentration 1000.0 nM
# [4] = biological target: Serine/threonine-protein kinase tousled-like 2 (Homo sapiens) (UniProt Q86UE8); settings: Compound concentration 1000.0 nM
# [5] = biological target: Calcium/calmodulin-dependent protein kinase type 1B (Homo sapiens) (UniProt Q6P2M8); settings: Compound concentration 1000.0 nM
# [6] = biological target: Serine/threonine-protein kinase TNNI3K (Homo sapiens) (UniProt Q59H18); settings: Compound concentration 1000.0 nM
# [7] = biological target: Serine/threonine-protein kinase 4 (Homo sapiens) (UniProt Q13043); settings: Compound concentration 1000.0 nM
# [8] = biological target: High affinity nerve growth factor receptor (Homo sapiens) (UniProt P04629); settings: Compound concentration 1000.0 nM
# [9] = biological target: Ephrin type-A receptor 3 (Homo sapiens) (UniProt P29320); settings: Compound concentration 1000.0 nM
# [10] = biological target: Myosin light chain kinase 2, skeletal/cardiac muscle (Homo sapiens) (UniProt Q9H1R3); settings: Compound concentration 1000.0 nM
# [11] = test system: Mast/stem cell growth factor receptor Kit (Homo sapiens), P10721 [V559D]; settings: Compound concentration 1000.0 nM
# [12] = biological target: Serine/threonine-protein kinase Nek9 (Homo sapiens) (UniProt Q8TD19); settings: Compound concentration 1000.0 nM
# Sequence of Serine/threonine-protein kinase Nek9 (Homo sapiens) (Q8TD19 whole entry): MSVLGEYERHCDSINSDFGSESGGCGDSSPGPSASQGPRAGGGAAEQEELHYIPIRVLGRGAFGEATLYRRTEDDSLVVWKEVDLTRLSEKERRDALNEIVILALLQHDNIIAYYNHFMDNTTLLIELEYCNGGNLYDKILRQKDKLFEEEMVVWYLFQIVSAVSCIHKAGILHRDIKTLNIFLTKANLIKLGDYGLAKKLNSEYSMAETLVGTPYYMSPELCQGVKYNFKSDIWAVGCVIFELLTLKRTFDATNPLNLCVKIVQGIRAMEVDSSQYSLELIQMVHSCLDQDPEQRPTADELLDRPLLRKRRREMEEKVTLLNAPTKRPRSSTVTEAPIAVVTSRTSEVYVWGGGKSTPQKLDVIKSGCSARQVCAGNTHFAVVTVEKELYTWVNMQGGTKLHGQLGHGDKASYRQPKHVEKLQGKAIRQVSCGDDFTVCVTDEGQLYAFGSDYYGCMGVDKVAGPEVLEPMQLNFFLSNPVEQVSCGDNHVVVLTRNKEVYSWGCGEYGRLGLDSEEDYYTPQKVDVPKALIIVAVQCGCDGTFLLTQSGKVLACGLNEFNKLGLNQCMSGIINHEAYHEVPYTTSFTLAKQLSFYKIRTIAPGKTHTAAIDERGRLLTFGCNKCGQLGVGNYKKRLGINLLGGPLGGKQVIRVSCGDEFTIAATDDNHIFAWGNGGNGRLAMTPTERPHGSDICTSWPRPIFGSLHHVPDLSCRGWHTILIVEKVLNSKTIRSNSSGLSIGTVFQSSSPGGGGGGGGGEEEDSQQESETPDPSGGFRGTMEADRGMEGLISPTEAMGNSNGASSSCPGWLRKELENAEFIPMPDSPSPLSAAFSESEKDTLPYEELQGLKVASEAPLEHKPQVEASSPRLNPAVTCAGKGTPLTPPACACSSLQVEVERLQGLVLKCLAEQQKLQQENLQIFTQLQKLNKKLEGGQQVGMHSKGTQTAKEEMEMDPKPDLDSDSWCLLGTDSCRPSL
# [13] = biological target: Aurora kinase B (Homo sapiens) (UniProt Q96GD4); settings: Compound concentration 1000.0 nM
# [14] = biological target: Serine/threonine-protein kinase D2 (Homo sapiens) (UniProt Q9BZL6); settings: Compound concentration 1000.0 nM
# [15] = biological target: Phosphorylase b kinase regulatory subunit alpha, liver isoform (Homo sapiens) (UniProt P46019); settings: Compound concentration 1000.0 nM
# [16] = biological target: Mitogen-activated protein kinase kinase kinase 11 (Homo sapiens) (UniProt Q16584); settings: Compound concentration 1000.0 nM
# [17] = test system: Receptor-type tyrosine-protein kinase FLT3 (Homo sapiens), P36888 [D835Y]; settings: Compound concentration 1000.0 nM
# [18] = biological target: Serine/threonine-protein kinase TAO2 (Homo sapiens) (UniProt Q9UL54); settings: Compound concentration 1000.0 nM
# [19] = biological target: Tyrosine-protein kinase Lck (Homo sapiens) (UniProt P06239); settings: Compound concentration 1000.0 nM
# [20] = test system: Serine/threonine-protein kinase B-raf (Homo sapiens), P15056 [V600E]; settings: Compound concentration 1000.0 nM
# [21] = biological target: Phosphatidylinositol 4,5-bisphosphate 3-kinase catalytic subunit alpha isoform (Homo sapiens) (UniProt P42336); settings: Compound concentration 1000.0 nM
# [22] = biological target: Serine/threonine-protein kinase DCLK3 (Homo sapiens) (UniProt Q9C098); settings: Compound concentration 1000.0 nM
# [23] = biological target: Cyclin-dependent kinase 14 (Homo sapiens) (UniProt O94921); settings: Compound concentration 1000.0 nM
# [24] = test system: Phosphatidylinositol 4,5-bisphosphate 3-kinase catalytic subunit alpha isoform (Homo sapiens), P42336 [M1043I]; settings: Compound concentration 1000.0 nM
# [25] = biological target: Serine/threonine-protein kinase MRCK gamma (Homo sapiens) (UniProt Q6DT37); settings: Compound concentration 1000.0 nM
# [26] = biological target: Tyrosine-protein kinase Fes/Fps (Homo sapiens) (UniProt P07332); settings: Compound concentration 1000.0 nM
# [27] = biological target: Testis-specific serine/threonine-protein kinase 1 (Homo sapiens) (UniProt Q9BXA7); settings: Compound concentration 1000.0 nM
# [28] = biological target: Vascular endothelial growth factor receptor 2 (Homo sapiens) (UniProt P35968); settings: Compound concentration 1000.0 nM
# [29] = biological target: Phosphatidylinositol 4-kinase beta (Homo sapiens) (UniProt Q9UBF8); settings: Compound concentration 1000.0 nM
# [30] = biological target: Mast/stem cell growth factor receptor Kit (Homo sapiens) (UniProt P10721); settings: Compound concentration 1000.0 nM
# [31] = biological target: Macrophage colony-stimulating factor 1 receptor (Homo sapiens) (UniProt P07333); settings: Compound concentration 1000.0 nM
# Sequence of Macrophage colony-stimulating factor 1 receptor (Homo sapiens) (P07333 whole entry): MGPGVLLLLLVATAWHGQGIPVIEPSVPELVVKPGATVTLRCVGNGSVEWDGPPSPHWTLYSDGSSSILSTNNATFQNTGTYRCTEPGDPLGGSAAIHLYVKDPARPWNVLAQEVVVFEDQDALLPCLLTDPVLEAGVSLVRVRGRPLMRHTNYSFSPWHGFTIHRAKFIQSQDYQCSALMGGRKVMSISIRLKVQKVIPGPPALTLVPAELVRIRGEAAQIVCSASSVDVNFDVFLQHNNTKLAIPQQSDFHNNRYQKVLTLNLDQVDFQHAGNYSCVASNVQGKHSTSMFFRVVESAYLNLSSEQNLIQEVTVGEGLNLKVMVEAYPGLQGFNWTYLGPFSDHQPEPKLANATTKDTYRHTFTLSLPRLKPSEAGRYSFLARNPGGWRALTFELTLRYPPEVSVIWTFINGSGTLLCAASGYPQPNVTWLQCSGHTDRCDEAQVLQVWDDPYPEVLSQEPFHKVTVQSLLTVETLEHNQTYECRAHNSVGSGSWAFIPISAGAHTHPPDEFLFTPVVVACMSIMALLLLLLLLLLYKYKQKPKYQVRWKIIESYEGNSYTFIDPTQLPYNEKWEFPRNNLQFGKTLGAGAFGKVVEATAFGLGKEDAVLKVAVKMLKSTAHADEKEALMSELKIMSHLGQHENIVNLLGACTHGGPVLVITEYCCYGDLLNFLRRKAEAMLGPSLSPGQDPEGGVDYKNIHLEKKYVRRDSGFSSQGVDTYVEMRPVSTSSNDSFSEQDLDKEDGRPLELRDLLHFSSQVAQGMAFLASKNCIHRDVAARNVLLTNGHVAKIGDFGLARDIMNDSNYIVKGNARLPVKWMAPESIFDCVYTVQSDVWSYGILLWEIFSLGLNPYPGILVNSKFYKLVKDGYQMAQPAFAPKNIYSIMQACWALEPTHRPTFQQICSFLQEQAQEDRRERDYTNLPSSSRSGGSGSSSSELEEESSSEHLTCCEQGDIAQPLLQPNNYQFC
# [32] = biological target: Uncharacterized serine/threonine-protein kinase SBK3 (Homo sapiens) (UniProt P0C264); settings: Compound concentration 1000.0 nM
# Sequence of Uncharacterized serine/threonine-protein kinase SBK3 (Homo sapiens) (P0C264 whole entry): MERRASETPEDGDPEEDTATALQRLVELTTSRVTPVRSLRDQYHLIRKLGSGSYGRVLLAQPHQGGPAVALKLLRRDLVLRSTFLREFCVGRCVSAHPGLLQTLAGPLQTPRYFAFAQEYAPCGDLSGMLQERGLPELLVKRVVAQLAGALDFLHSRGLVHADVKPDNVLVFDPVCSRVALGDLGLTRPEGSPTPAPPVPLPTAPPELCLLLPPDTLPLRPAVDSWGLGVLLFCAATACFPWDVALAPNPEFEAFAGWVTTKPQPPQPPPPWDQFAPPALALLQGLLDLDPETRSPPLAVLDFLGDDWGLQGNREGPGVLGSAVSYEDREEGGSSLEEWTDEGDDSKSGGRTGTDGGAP
# [33] = biological target: Serine/threonine-protein kinase 38-like (Homo sapiens) (UniProt Q9Y2H1); settings: Compound concentration 1000.0 nM
# [34] = biological target: Serine/threonine-protein kinase B-raf (Homo sapiens) (UniProt P15056); settings: Compound concentration 1000.0 nM
# [35] = biological target: Tyrosine-protein kinase receptor TYRO3 (Homo sapiens) (UniProt Q06418); settings: Compound concentration 1000.0 nM
# [36] = biological target: 5'-AMP-activated protein kinase catalytic subunit alpha-2 (Homo sapiens) (UniProt P54646); settings: Compound concentration 1000.0 nM
# [37] = biological target: Serine/threonine-protein kinase MARK1 (Homo sapiens) (UniProt Q9P0L2); settings: Compound concentration 1000.0 nM
# [38] = biological target: BMP-2-inducible protein kinase (Homo sapiens) (UniProt Q9NSY1); settings: Compound concentration 1000.0 nM
# [39] = biological target: Rhodopsin kinase GRK1 (Homo sapiens) (UniProt Q15835); settings: Compound concentration 1000.0 nM
# [40] = biological target: Dual specificity protein kinase TTK (Homo sapiens) (UniProt P33981); settings: Compound concentration 1000.0 nM
# [41] = biological target: Macrophage-stimulating protein receptor (Homo sapiens) (UniProt Q04912); settings: Compound concentration 1000.0 nM
# Sequence of Macrophage-stimulating protein receptor (Homo sapiens) (Q04912 25-304 limits assumed): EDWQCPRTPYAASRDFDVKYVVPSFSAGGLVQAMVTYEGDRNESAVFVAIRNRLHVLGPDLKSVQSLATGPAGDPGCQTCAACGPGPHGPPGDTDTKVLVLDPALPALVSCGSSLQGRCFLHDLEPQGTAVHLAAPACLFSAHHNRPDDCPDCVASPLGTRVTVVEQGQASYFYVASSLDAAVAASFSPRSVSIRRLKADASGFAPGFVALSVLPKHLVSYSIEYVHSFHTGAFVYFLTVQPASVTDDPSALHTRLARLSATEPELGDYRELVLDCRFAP
# Sequence of Macrophage-stimulating protein receptor (Homo sapiens) (Q04912 310-1400 limits assumed): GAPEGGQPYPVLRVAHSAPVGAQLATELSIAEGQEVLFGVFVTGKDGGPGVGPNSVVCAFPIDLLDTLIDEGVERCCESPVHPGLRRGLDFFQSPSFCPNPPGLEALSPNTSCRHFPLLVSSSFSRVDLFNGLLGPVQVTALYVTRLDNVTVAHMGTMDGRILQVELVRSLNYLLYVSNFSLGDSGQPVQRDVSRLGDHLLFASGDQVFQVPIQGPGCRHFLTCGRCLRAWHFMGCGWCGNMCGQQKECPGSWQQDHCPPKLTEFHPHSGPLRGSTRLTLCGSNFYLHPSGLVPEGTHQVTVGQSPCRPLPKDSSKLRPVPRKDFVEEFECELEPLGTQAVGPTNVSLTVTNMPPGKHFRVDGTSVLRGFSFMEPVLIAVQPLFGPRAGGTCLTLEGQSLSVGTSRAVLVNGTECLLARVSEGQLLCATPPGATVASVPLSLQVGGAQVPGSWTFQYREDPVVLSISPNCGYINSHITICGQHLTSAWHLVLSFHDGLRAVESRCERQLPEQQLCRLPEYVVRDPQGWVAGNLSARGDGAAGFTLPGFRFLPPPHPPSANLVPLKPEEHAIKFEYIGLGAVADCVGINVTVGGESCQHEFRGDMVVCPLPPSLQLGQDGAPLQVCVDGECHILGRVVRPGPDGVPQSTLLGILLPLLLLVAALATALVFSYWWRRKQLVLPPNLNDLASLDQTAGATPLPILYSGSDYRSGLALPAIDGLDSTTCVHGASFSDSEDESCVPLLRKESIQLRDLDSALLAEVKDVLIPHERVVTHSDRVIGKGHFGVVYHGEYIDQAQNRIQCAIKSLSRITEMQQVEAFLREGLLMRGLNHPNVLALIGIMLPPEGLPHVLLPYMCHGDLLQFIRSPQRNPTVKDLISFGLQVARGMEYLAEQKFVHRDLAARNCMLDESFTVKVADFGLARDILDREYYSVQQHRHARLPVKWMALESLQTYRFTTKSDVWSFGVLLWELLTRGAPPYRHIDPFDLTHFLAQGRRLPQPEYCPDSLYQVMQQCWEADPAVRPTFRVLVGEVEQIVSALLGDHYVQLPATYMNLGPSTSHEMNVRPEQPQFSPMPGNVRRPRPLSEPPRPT
# [42] = biological target: Serine/threonine-protein kinase Sgk3 (Homo sapiens) (UniProt Q96BR1); settings: Compound concentration 1000.0 nM
# [43] = test system: Epidermal growth factor receptor (Homo sapiens), P00533 [L858R]; settings: Compound concentration 1000.0 nM
# [44] = biological target: 5-hydroxytryptamine receptor 2A (Homo sapiens) (UniProt P28223); settings: Compound concentration 10.0 uM
# Sequence of 5-hydroxytryptamine receptor 2A (Homo sapiens) (P28223 whole entry): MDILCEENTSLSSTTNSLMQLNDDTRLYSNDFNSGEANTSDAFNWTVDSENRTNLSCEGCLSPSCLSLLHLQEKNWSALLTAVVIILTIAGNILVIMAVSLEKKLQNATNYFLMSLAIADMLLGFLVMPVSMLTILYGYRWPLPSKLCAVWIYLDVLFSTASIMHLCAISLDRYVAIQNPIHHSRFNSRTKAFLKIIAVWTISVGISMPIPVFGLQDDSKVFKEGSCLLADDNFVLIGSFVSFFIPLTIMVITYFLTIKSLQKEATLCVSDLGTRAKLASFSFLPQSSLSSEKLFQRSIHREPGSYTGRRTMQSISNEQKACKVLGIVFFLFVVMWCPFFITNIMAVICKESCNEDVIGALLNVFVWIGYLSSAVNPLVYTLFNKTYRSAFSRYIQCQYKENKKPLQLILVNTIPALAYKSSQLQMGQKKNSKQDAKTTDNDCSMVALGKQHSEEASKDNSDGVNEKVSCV
# [45] = biological target: Fibroblast growth factor receptor 3 (Homo sapiens) (UniProt P22607); settings: Compound concentration 1000.0 nM
# Sequence of Fibroblast growth factor receptor 3 (Homo sapiens) (P22607 23-806 limits assumed): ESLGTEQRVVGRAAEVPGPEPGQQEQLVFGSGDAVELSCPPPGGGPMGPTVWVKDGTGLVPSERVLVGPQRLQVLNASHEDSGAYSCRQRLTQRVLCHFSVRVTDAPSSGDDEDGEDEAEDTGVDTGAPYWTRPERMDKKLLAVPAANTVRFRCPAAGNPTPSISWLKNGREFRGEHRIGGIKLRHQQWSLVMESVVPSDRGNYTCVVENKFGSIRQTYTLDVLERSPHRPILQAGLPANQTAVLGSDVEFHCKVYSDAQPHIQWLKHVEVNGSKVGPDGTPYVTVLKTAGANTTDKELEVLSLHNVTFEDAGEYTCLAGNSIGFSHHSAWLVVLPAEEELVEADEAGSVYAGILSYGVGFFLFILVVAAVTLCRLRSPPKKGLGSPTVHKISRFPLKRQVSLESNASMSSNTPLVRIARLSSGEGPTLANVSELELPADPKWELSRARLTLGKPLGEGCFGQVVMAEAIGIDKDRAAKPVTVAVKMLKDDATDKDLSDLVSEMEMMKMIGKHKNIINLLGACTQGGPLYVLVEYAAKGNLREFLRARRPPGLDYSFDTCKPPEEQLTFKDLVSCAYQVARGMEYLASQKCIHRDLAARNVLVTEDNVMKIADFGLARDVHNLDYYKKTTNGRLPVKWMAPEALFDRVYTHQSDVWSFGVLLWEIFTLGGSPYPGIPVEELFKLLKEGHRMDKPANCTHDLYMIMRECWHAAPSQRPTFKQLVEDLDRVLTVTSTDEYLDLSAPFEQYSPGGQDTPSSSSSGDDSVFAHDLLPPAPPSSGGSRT
smiles,measurement,setting,value
CO[C@@H](C)c1c(Nc2ccc([C@@H](N(C)C(=O)C3CCS(=O)(=O)CC3)C(F)(F)F)cc2)cnc2cc(Cl)nn12 [NVS-MALT1-C],residual activity,[1],92%
same,residual activity,[2],84%
same,residual activity,[3],87%
same,residual activity,[4],100%
same,residual activity,[5],100%
same,residual activity,[6],91%
same,residual activity,[7],100%
same,residual activity,[8],93%
same,residual activity,[9],90%
same,residual activity,[10],88%
same,residual activity,[11],100%
same,residual activity,[12],90%
same,residual activity,[13],74%
same,residual activity,[14],86%
same,residual activity,[15],44%
same,residual activity,[16],85%
same,residual activity,[17],42%
same,residual activity,[18],94%
same,residual activity,[19],84%
same,residual activity,[20],85%
same,residual activity,[21],92%
same,residual activity,[22],100%
same,residual activity,[23],99%
same,residual activity,[24],100%
same,residual activity,[25],86%
same,residual activity,[26],100%
same,residual activity,[27],100%
same,residual activity,[28],95%
same,residual activity,[29],100%
same,residual activity,[30],100%
same,residual activity,[31],72%
same,residual activity,[32],81%
same,residual activity,[33],75%
same,residual activity,[34],76%
same,residual activity,[35],99%
same,residual activity,[36],78%
same,residual activity,[37],81%
same,residual activity,[38],91%
same,residual activity,[39],86%
same,residual activity,[40],100%
same,residual activity,[41],100%
same,residual activity,[42],100%
same,residual activity,[43],87%
same,inhibition,[44],4.93%
same,residual activity,[45],90%
CO[C@@H](C)c1c(Nc2ccc([C@H](N(C)C(=O)C3CCS(=O)(=O)CC3)C(F)(F)F)cc2)cnc2cc(Cl)nn12 [NVS-MALT1],residual activity,[1],100%
same,residual activity,[2],77%
same,residual activity,[3],90%
same,residual activity,[4],92%
same,residual activity,[5],100%
same,residual activity,[6],73%
same,residual activity,[7],100%
same,residual activity,[8],80%
same,residual activity,[9],97%
same,residual activity,[10],83%
same,residual activity,[11],100%
same,residual activity,[12],77%
same,residual activity,[13],91%
same,residual activity,[14],83%
same,residual activity,[15],96%
same,residual activity,[16],79%
same,residual activity,[17],59%
same,residual activity,[18],88%
same,residual activity,[19],83%
same,residual activity,[20],96%
same,residual activity,[21],94%
same,residual activity,[22],100%
same,residual activity,[23],100%
same,residual activity,[24],100%
same,residual activity,[25],87%
same,residual activity,[26],100%
same,residual activity,[27],100%
same,residual activity,[28],100%
same,residual activity,[29],82%
same,residual activity,[30],100%
same,residual activity,[31],77%
same,residual activity,[32],84%
same,residual activity,[33],75%
same,residual activity,[34],85%
same,residual activity,[35],100%
same,residual activity,[36],100%
same,residual activity,[37],69%
same,residual activity,[38],89%
same,residual activity,[39],82%
same,residual activity,[40],77%
same,residual activity,[41],100%
same,residual activity,[42],100%
same,residual activity,[43],88%
same,inhibition,[44],2.45%
same,residual activity,[45],88%
